The source of these data is ChEMBL document CHEMBL1201862, “PubChem BioAssay data set” (2004).

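These data come from cells grown in 96-well plates and exposed to compound for 48 hours at five concentrations. Abbreviation: GI50, concentration required for 50% inhibition of growth.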 Active and inactive are the calls of the source. Rule as the data show it: active = GI50 up to about 1.1 µM and inactive = higher.

Among the test systems are A549; BT-549; COLO 205; HCT-15; HOP-92; K562; KM12; M14; MCF7; MDA-MB-435; Malme-3M; NCI-H226; NCI/ADR-RES; OVCAR-5; OVCAR-8; SK-MEL-5; SN12C; T47D; TK-10; U-251.
Common to all, as to experiment: NCI-60 cell line screen, 48 h

For `CCOC(=O)/C(C#N)=C/c1ccc2c(c1)CC1(C2)Cc2cc(CC)c(C(C)O)cc2C1` (stereo not given), the GI50 is 44.1 µM (inactive) with A549; 10.8 µM (inactive) with BT-549; 25.2 µM (inactive) in the assay with COLO 205; 5.24 µM in the assay on HCT-15; 16.5 µM (inactive) in the assay on HOP-92; 4.31 µM (inactive) in the assay with K562. Moreover, the GI50 in the assay with KM12 was 19.6 µM (inactive); with M14 it was 5.32 µM (inactive); in the assay with MCF7, 5.18 µM (inactive); in the assay with MDA-MB-435, 2.14 µM (inactive); in the assay with Malme-3M, 6.11 µM (inactive); with NCI-H226, 19.3 µM (inactive). Besides, the GI50 with NCI/ADR-RES was 8.77 µM (inactive); with OVCAR-5 it was 33 µM (inactive); with OVCAR-8, 15 µM (inactive); with SK-MEL-5, 4.78 µM (inactive); with SN12C, 14.2 µM (inactive); in the assay with T47D, 27.9 µM (inactive). The GI50 in the assay on TK-10 is 25.5 µM (inactive); in the assay on U-251, 6.35 µM (inactive).
As to `CCC(=O)Oc1ccc2c(c1)c(=O)c1c(NCCCN(C)C)ccc3nnn2c31`, the GI50 with A549 was 0.275 µM (active); in the assay on BT-549, 12.3 µM (inactive); in the assay with COLO 205, 1.99 µM (inactive); in the assay on HCT-15, 0.4 µM; in the assay with HOP-92, 3.48 µM (inactive); in the assay with K562, 0.726 µM (active). Moreover, the GI50 in the assay with KM12 was 0.796 µM (active); in the assay on M14, 5.3 µM (inactive); in the assay with MCF7 it was 0.536 µM (active); with MDA-MB-435, 2.79 µM (inactive); in the assay with Malme-3M it was 3.98 µM (inactive); in the assay on NCI-H226, 2.31 µM (inactive). Also, the GI50 in the assay on NCI/ADR-RES is 3.31 µM (inactive); in the assay on OVCAR-5 it was 8.28 µM (inactive); in the assay with OVCAR-8, 0.403 µM (active); in the assay with SK-MEL-5 it was 1.9 µM (inactive); with SN12C it was 0.525 µM (active); in the assay on T47D, 15.7 µM (inactive). The GI50 in the assay on TK-10 is 0.818 µM (active); in the assay on U-251 it was 1.42 µM (inactive).
As for `Oc1ccccc1/C=N/Nc1nnc2c3ccccc3c3ccccc3c2n1`, the GI50 in the assay on A549 was > 100 µM (inactive); in the assay with BT-549 it was > 100 µM (inactive); in the assay with COLO 205, > 100 µM (inactive); in the assay on HCT-15, 73.6 µM; with HOP-92, > 100 µM (inactive); in the assay with K562 it was > 100 µM (inactive). For the same compound, the GI50 was 71.4 µM (inactive) in the assay with KM12; > 100 µM (inactive) with M14; 32.3 µM (inactive) in the assay on MCF7; 28.1 µM (inactive) in the assay with MDA-MB-435; 59.6 µM (inactive) in the assay on Malme-3M; > 100 µM (inactive) in the assay on NCI-H226. In addition, the GI50 is 47.9 µM (inactive) with NCI/ADR-RES; > 100 µM (inactive) with OVCAR-5; > 100 µM (inactive) in the assay with OVCAR-8; 48.3 µM (inactive) in the assay on SK-MEL-5; > 100 µM (inactive) with SN12C; 65 µM (inactive) in the assay with T47D. The GI50 was 45.4 µM (inactive) in the assay with TK-10 and > 100 µM (inactive) with U-251.
